Columns and labels:
B16 melanoma [1] = experiment: Cancer antigen (gp100) potentiation in B16 melanoma lung model; format: in vivo, mouse; settings: K. pneumoniae-pre-exposed mice; day +14
B16 melanoma [2] = experiment: STING agonist combined with SSI in B16 melanoma lung model; format: in vivo, mouse; settings: day +14
Method: The anti-tumour efficacy of QBKPN SSI in combination with the STING agonist 2′2′-cGMAP (inVivoGen) was evidenced in C57Bl/6 mice, as follows. On ˜day −31, mice were infected with K. pneumoniae (2.5×10^5 cells/mouse) by oropharyngeal instillation after being anaesthetized with isofluorane, then rested. Within 5-7 days, all mice were fully recovered from K. pneumonia challenge. Starting on day −10, some mice were S.C. injected with QBKPN SSI; mice were injected every other day from Day −10 to day +12. Injections were performed in rotating sites at a dose of 0.03 ml of a 5.0 OD suspension. On days −10, −6, and −4, some mice were also treated with STING agonist (SC injection of 10 μg/mouse in 20 μl of saline), either co-mixed with SSI or s.c. in a distal site (nape). On Day 0, mice were challenged with B16 melanoma by tail-vein (I.V.) injection of singlecell suspensions of tumour cells (2.0×10^5 cells/mouse). On day +14, plasma was collected for ELISA, then mice were sacrificed and visual metastases counted and recorded. Serum was collected into heparin-containing tubes, then centrifuged to remove cells. ELISA (RND Systems DuoSet DY485, limit of detection […]) was performed per the manufacturer's protocol. […] Statistical differences were evaluated by unpaired T test (GraphPad PRISM).

In the case of “KVPRNQDWL [gp100, melanoma-specific antigen gp100 25-33 peptide]”, the “tumour burden (metastatic-like B16 melanoma in the lungs)” value (B16 melanoma [1]) was “no significant effect”.
In the case of `Nc1nc2c(ncn2[C@@H]2O[C@@H]3COP(=O)(O)O[C@@H]4[C@H](O)C(COP(=O)(O)O[C@@H]2C3O)O[C@H]4n2cnc3c(N)ncnc32)c(=O)[nH]1` (stereo partly drawn) [STING agonist, 2′2′-cGMAP], the “tumour burden (tumour nodules in the lungs)” value (B16 melanoma [2]; K. pneumoniae-pre-exposed mice) was “reduced tumour burden (p=0.0038)” and the “circulating (plasma) levels of IFN-γ” value (B16 melanoma [2]) was “enhanced circulating levels of IFN-γ”.

Source: patent US11226340B2, “Therapeutically triggering an innate immune response in a target tissue” (priority 2016, dated 2022)
